The text below walks through data of ChEMBL document CHEMBL6109057, “Synthesis of harmaline N-9 derivatives and investigation of in vitro anticancer activity” (Bioorg Med Chem Lett, 2025).

The source made the active and inactive calls. The rule behind the calls is not given here. Bounds are passed on as bounds.

Assay [1] has as its system MCF7. Nature of the assay: Antiproliferative activity against human MCF7 cells assessed as reduction in cell viability measured after 24 hrs. It counts as functional, cell-based. The following applies: MCF7, 24 h.
For assay [2], the system named is HCT-116. Nature of the assay: Antiproliferative activity against human HCT-116 cells assessed as cell viability at 50 uM measured after 24 hrs relative to control. It counts as functional. The note with it: read-out: Activity.
Assay [3] relates to MCF7. In words: Antiproliferative activity against human MCF7 cells assessed as cell viability at 50 uM measured after 24 hrs relative to control. It counts as functional. The following applies: read-out: Activity.
Assay [4] relates to MGC-803. Nature of the assay: Antiproliferative activity against human MGC-803 cells assessed as cell viability at 50 uM measured after 24 hrs relative to control. It counts as functional. The note with it: read-out: Activity.
Assay [5] deals with MGC-803. Nature of the assay: Antiproliferative activity against human MGC-803 cells assessed as reduction in cell viability measured after 24 hrs. It is filed as functional, cell-based. The note with it: MGC-803, 24 h.
In assay [6] the test system is HCT-116. In words: Antiproliferative activity against human HCT-116 cells assessed as reduction in cell viability measured after 24 hrs. It counts as functional, cell-based. The note with it: HCT-116, 24 h.
In assay [7] the test system is MCF7. In words: Antiproliferative activity against human MCF7 cells assessed as reduction in cell viability at 50 uM measured after 24 hrs. It counts as functional, cell-based.
Assay [8] concerns HCT-116. In words: Antiproliferative activity against human HCT-116 cells assessed as reduction in cell viability at 50 uM measured after 24 hrs. It counts as functional, cell-based.
In assay [9] the test system is MGC-803. In words: Antiproliferative activity against human MGC-803 cells assessed as reduction in cell viability at 50 uM measured after 24 hrs. It is filed as functional, cell-based.
Assay [10] deals with HeLa. Nature of the assay: Antiproliferative activity against human HeLa cells assessed as reduction in cell viability measured after 48 hrs by 3-(4,5-dimethylthiazol-2-yl)-2,5-diphenyltetrazolium bromide assay. It is filed as functional, cell-based.
Assay [11] deals with SGC-7901. Nature of the assay: Antiproliferative activity against human SGC-7901 cells assessed as reduction in cell viability measured after 48 hrs by MTT assay. It is filed as functional, cell-based. The following applies: SGC-7901, 48 h. Background: Formazan colour is commonly taken as a measure of viable cells.
In assay [12] the test system is U-87 MG. Nature of the assay: Antiproliferative activity against human U87 cells assessed as reduction in cell viability measured after 24 hrs. It counts as functional, cell-based, U-87MG ATCC.
Assay [13] deals with U-87 MG. In words: Antiproliferative activity against human U87 cells assessed as reduction in cell viability measured after 48 hrs. It counts as functional, cell-based, U-87MG ATCC.
Assay [14] deals with HepG2. Nature of the assay: Antiproliferative activity against human HepG2 cells assessed as reduction in cell viability measured after 48 hrs by 3-(4,5-dimethylthiazol-2-yl)-2,5-diphenyltetrazolium bromide assay. It counts as functional, cell-based. The note with it: HepG2, 48 h.
Assay [15] concerns NCI-H1299. Nature of the assay: Antiproliferative activity against human NCI-H1299 cells assessed as reduction in cell viability measured after 48 hrs by MTT assay. The note with it: NCI-H1299, 48 h. It is filed as functional, cell-based.
Assay [16] relates to 4T1. Nature of the assay: Antiproliferative activity against mouse 4T1 cells assessed as reduction in cell viability measured after 24 hrs by MTT assay. It counts as functional, cell-based. The note with it: 4T1, 24 h.
For assay [17], the system named is A549. In words: Antiproliferative activity against human A549 cells assessed as reduction in cell viability measured after 48 hrs by MTT assay. It is filed as functional, cell-based. The note with it: A549, 48 h.

A word on the IC50: it is the midpoint of a concentration-inhibition curve. Regarding `COc1ccc2c3c(n(Cc4ccc5ccccc5c4)c2c1)C(C)=NCC3`, the IC50 is 11.9 µM in assay [1], 21.4 µM in assay [5] and 6.32 µM in [6]. In addition, the viability at 50 µM in [2], in [3] and in [4] was less than 10% in each case.
Take `COc1ccc2c3c(n(CCCCn4c5cc(OC)ccc5c5ccnc(C)c54)c2c1)C(C)=NCC3`: the IC50 amounted to 18.7 µM in assay [1], 10.2 µM in assay [5] and 4.5 µM in assay [6]. Further, the viability at 50 µM in assay [2], in assay [3] and in assay [4] was less than 10% in each case.
Consider `COc1ccc2c3c(n(CCCCBr)c2c1)C(C)=NCC3`, for which the outcome in [7], in assay [8] and in [9] was Active.
For the molecule `COc1ccc2c3c([nH]c2c1)C(C)=NCC3` [HARMALINE], the IC50 worked out at 28 µM in assay [10]; 4.08 µM in assay [11]; 208 µM in assay [12]; 127 µM in [13]; 11.2 µM in assay [14]; 48.2 µM in [15]. Moreover, the IC50 in [16] amounted to 30.9 µM; in assay [17], 67.9 µM. For the same molecule, the viability at 50 µM in assay [2] is roughly 75%; in [3], roughly 71%; in assay [4], roughly 120%.
For `COc1ccc2c3c(n(Cc4ccc(F)cc4)c2c1)C(C)=NCC3`, the result in assay [7], in assay [8] and in [9] was Active.
In the case of `COc1ccc2c3c(n(Cc4ccccc4)c2c1)C(C)=NCC3`, the result in assay [7], in assay [8] and in [9] was Active.
Take `COc1ccc2c3c(n(C/C=C/c4ccccc4)c2c1)C(C)=NCC3`: the result in assay [7], in assay [8] and in assay [9] was Active.
`COc1ccc2c3c(n(Cc4ccccc4C)c2c1)C(C)=NCC3`: the result in assay [7], in assay [8] and in assay [9] was Active.
`COc1ccc2c3c(n(Cc4ccccc4F)c2c1)C(C)=NCC3`: the result in [7], in assay [8] and in [9] was Active.
For `C#CCn1c2c(c3ccc(OC)cc31)CCN=C2C`, the result in assay [7], in [8] and in assay [9] was Active.
As to `COC(=O)CCCn1c2c(c3ccc(OC)cc31)CCN=C2C`, the outcome in [7], in [8] and in assay [9] was Active.
In the case of `COC(=O)CCn1c2c(c3ccc(OC)cc31)CCN=C2C`, the result in assay [7], in assay [8] and in [9] was Active.
